Experimental findings from US12662473B2, “Inhibitors for programmed cell necrosis and preparation method therefor and use thereof” (SHANGHAI INSTITUTE OF ORGANIC CHEMISTRY, CHINESE ACADEMY OF …, priority 2019, dated 2026) are described below.

Assay [1] has as its target T1, RIPK1(1-330) protein (Homo sapiens, UniProt Q13546).
T1 sequence (Q13546 1-330): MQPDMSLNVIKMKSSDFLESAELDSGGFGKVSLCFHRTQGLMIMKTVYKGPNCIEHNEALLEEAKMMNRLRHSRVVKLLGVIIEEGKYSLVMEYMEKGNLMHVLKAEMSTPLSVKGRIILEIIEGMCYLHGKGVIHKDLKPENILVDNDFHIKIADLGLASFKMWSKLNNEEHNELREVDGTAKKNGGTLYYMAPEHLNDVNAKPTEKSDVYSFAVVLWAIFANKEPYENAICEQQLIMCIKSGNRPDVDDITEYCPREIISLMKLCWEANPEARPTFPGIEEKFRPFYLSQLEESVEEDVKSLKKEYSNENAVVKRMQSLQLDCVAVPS
Kind of assay: Protein thermal shift assay. The settings on record: FIG. 3. The assay is classed as binding. On the set-up: RIPK1(1-330) protein (final concentration 2 μM) was expressed and purified in insect cells; made in house; host or cells: insect cells. As to the method:
The interaction between RIPK1 protein and compound was analyzed by studying the thermal stability of the protein. Small molecule ligands can stabilize proteins by binding to proteins, increasing the Tm value of proteins. The interaction between the compound and the protein can be indirectly judged by testing the effect of the compound on the thermal stability of the protein. RIPK1 protein contains kinase domain (1-312), intermediate domain (312-582) and death domain (582-669), and RIPK1 (1-330) protein purified in vitro contains all kinase domains.
The adopted biological test protocol was to test the effect of compound QY-1-98 on the thermal stability of RIPK1 (1-330) protein using protein thermal shift assay, using the known RIPK1 inhibitor Nec-1s as a control.
RIPK1(1-330) protein (final concentration 2 μM) was expressed and purified in insect cells, mixed with the corresponding concentration of compound and SYRO Orange Protein gel stain dye (final concentration 5×). 10 μL of final volume was added to 384-well plate, and at least 3 duplicate wells were set in each group. After the samples were placed for 2 hours at room temperature, the 7500 Fast Real-Time PCR System was applied to test the thermal stability of the protein by […]. The temperature was set at 25° C.-95° C., 0.015° C./s. The datas were analyzed using protein thermal shift software.

Assay [2] has as its target T1, RIPK1(1-330) protein. Kind of assay: ADP-Glo kinase activity assay at different ATP concentrations. On the set-up: RIPK1(1-330) protein with a final concentration of 2 μL and ATP; made in house. The assay is classed as biochemical. The settings on record: FIG. 4. As to the method:
The adopted biological test protocol was: The effect of compound QY-1-98 on the kinase activity of RIPK1(1-330) protein was tested. The purified RIPK1(1-330) protein in vitro retained the complete kinase activity domain and maintained good kinase activity. Through the IC50 of the compounds of the present invention inhibiting RIPK1 kinase activity in the environment with different concentrations of ATP, the binding mode of the compounds to RIPK1 is obtained. Nec-1s, a known ATP-noncompetitive inhibitor of RIPK1, was used as a control.
RIPK1(1-330) protein with a final concentration of […] and ATP (1× kinase buffer) with a corresponding concentration were added to the 384-well plate, with a […]. At least 3 duplicate wells were set in each group. The reaction was carried out at 37° C. for 2H. 5 μL of ADP-Glo reagent was added, which is used to stop the kinase reaction and remove residual ATP from the reaction system. The reaction solution was placed at room temperature for 40 min 10 μL of kinase detection reagent was added, which is used to convert ADP to ATP and luciferase and luciferin were introduced to detect ATP in the system. The reaction was carried out at room temperature for 1H. Luminescence was detected using the 7500 Fast Real-Time PCR System. The IC50 of the compounds inhibiting the kinase reaction was calculated using Prism Graphpad statistical software.
In general terms: In ADP-Glo the light output rises with the ADP produced.

Assay [3] deals with RIPK1 phosphorylation and MLKL oligomerization in FADD deficient Jurkat cells. Kind of assay: Western blot of key proteins in TNFα-induced FADD deficient Jurkat cell programmed necrosis pathway. The settings on record: TNFα-stimulated FADD deficient Jurkat cells, FIG. 2. The assay is classed as cell-based, human. An excerpt: In order to verify whether the compounds of the present invention can inhibit programmed cell death by inhibiting the activity of RIPK1, and to detect the activation of downstream proteins of programmed necrosis pathway, TNFα was used to stimulate FADD deficient Jurkat to produce programmed necrosis, and the compounds of the present invention were used to treat the cells at the same time. Cells were harvested after a period of time to detect phosphorylation of RIPK1 and oligomerization of MLKL using western blot.
FADD deficient Jurkat cells (human peripheral blood leukemia T cell line) were cultured in vitro. […] The BCA protein quantification kit was used to detect the protein content of each group, and PIPA lysis buffer was used to adjust the protein amount to make the final volume of 100 μL. […]
25 μL of 5* protein loading buffer was added to 100 μL of cell lysate, and the mixture was heated at 95° C. for 10 min After the samples were cooled, electrophoresis was carried out using SDS-PAGE (9%) gel at 60V, and then switched to 120V after 30 min until the leading band was electrophoresed to the bottom of the gel. […] The resulting sample was incubated with ECL luminescent solution and detected the luminescent signal.
A general note: In western blotting, separated proteins are transferred to a membrane and probed.

As for `Cc1noc([C@@H]2CCCN2C(=O)C(C)(C)Oc2ccc(Cl)cc2)n1` [QY-1-98], in assay [1], the “thermal stability of RIPK1 (1-330) protein” value is given as “can significantly improve the thermal stability”. Moreover, the “activity of RIPK1 (1-330) protein kinase in vitro” value in assay [2] (ADP-Glo) is given as “can inhibit the activity of RIPK1 (1-330) protein kinase in vitro”. For the same compound, in assay [2] (different ATP concentrations), the “change of IC50 with the increase of ATP concentration” value is on record as “does not change significantly”. Also, in assay [3], the “oligomerization of MLKL” value is on record as “can inhibit” and the “phosphorylation of RIPK1” value is given as “can inhibit the phosphorylation of RIPK1”.
